Assay results as given in ChEMBL document CHEMBL4715711, “Development of cyanopyridine-triazine hybrids as lead multitarget anti-Alzheimer agents” (Bioorg Med Chem, 2016).
Active and inactive are the calls of the source. No cut-off for these calls is given here.

Columns and labels:
SH-SY5Y [1] = experiment: Neuroprotective activity against amyloid beta (1 to 42)-induced loss of adherence in human SH-SY5Y cells at 20 uM incubated for 24 hrs in presence of amyloid beta (1 to 42) by phase-contrast microscopic analysis; type: functional, cell-based
SH-SY5Y [2] = experiment: Neuroprotective activity against amyloid beta (1 to 42)-induced fade synapses in human SH-SY5Y cells at 20 uM incubated for 24 hrs in presence of amyloid beta (1 to 42) by phase-contrast microscopic analysis; type: functional, cell-based
SH-SY5Y [3] = experiment: Cytotoxicity against human SH-SY5Y cells assessed as reduction in cell viability at 25 uM incubated for 48 hrs by MTT assay; type: cell-based
SH-SY5Y [4] = experiment: Neuroprotective activity against amyloid beta (1 to 42)-induced shrink on cell body in human SH-SY5Y cells at 20 uM incubated for 24 hrs in presence of amyloid beta (1 to 42) by phase-contrast microscopic analysis; type: functional, cell-based
SH-SY5Y [5] = experiment: Cytotoxicity against human SH-SY5Y cells assessed as reduction in cell viability at 50 uM incubated for 48 hrs by MTT assay; type: cell-based
Homo sapiens [6] = organism: Homo sapiens; experiment: Inhibition of amyloid beta (1 to 42 ) (unknown origin) self aggregation at 25 uM after 48 hrs by TEM analysis
[7] = target: Acetylcholinesterase (Electrophorus electricus) (UniProt O42275); experiment: Mixed inhibition of electric eel AchE using acetylthiocholine iodide as substrate incubated for 5 mins followed by substrate addition and measured after 2 mins by Ellman's method based Lineweaver-Burk plot analysis; conditions: time 7.0 min
Acetylcholinesterase (Electrophorus electricus), sequence (O42275 24-633 limits assumed): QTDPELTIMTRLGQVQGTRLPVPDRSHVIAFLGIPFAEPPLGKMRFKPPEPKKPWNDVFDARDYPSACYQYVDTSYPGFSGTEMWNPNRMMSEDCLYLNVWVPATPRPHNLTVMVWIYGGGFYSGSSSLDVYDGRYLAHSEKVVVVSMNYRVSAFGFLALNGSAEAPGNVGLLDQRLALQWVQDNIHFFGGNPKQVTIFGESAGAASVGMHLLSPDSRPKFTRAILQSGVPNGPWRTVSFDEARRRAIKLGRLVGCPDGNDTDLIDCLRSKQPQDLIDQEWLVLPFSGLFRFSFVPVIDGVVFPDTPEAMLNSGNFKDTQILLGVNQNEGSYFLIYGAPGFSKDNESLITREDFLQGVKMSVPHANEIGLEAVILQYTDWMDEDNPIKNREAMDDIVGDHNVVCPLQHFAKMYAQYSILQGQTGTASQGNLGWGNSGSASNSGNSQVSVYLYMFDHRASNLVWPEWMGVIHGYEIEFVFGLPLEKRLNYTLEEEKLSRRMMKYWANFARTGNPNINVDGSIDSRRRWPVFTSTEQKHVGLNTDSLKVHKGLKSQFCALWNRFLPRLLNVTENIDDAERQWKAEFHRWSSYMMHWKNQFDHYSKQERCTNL

Homo sapiens [8] = organism: Homo sapiens; experiment: Inhibition of amyloid beta (1 to 42 ) (unknown origin) self aggregation at 25 uM after 48 hrs by thioflavin-T fluorescence method relative to control
SH-SY5Y [9] = experiment: Neuroprotective activity against amyloid beta (1 to 42)-induced cell fragmentation in human SH-SY5Y cells at 20 uM incubated for 24 hrs in presence of amyloid beta (1 to 42) by phase-contrast microscopic analysis; type: functional, cell-based
Acetylcholinesterase = Acetylcholinesterase (Electrophorus electricus, UniProt O42275); experiment: Inhibition of electric eel AchE using acetylthiocholine iodide as substrate incubated for 5 mins followed by substrate addition and measured after 2 mins by Ellman's method
Acetylcholinesterase, sequence (O42275 whole entry): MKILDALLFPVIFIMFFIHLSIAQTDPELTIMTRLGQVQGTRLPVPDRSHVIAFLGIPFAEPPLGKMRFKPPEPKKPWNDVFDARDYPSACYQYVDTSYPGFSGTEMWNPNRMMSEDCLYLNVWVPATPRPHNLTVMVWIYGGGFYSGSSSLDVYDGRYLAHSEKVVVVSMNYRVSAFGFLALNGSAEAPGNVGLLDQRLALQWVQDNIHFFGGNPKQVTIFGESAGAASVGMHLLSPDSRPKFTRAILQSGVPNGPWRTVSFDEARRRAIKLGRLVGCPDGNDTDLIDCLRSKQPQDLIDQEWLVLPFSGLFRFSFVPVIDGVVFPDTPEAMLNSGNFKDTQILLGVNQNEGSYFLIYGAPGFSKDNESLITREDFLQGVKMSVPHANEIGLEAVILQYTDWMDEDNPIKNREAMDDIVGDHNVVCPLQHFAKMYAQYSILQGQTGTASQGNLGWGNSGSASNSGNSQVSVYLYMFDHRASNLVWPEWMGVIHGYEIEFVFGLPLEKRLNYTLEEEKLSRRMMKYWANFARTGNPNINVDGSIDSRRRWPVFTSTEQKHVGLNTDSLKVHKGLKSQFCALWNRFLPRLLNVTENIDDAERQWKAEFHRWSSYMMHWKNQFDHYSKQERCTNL

Cholinesterase = Cholinesterase (Equus caballus, UniProt P81908); experiment: Inhibition of equine serum BuChE using butyrylthiocholine iodide as substrate incubated for 5 mins followed by substrate addition and measured after 2 mins by Ellman's method; type: cell-free
Cholinesterase, sequence (P81908 whole entry): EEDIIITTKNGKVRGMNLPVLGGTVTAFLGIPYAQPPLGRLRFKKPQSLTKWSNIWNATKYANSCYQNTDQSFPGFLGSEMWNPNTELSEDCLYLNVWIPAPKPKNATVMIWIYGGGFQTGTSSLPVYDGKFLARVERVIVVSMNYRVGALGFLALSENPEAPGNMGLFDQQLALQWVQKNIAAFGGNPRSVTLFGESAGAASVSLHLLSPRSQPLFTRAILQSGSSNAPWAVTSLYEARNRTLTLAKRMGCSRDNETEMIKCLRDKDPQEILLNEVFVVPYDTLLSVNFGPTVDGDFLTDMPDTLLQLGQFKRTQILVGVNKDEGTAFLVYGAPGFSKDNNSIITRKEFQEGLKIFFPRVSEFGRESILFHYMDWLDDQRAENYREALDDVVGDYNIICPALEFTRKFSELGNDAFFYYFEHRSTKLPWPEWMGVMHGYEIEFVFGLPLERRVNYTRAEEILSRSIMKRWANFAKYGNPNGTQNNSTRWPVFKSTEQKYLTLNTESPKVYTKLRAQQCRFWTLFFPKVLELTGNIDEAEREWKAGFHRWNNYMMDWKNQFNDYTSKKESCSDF

SH-SY5Y [10] = experiment: Neuroprotective activity against amyloid beta (1 to 42)-induced neurotoxicity in human SH-SY5Y cells at 5 to 20 uM incubated for 48 hrs in presence of amyloid beta (1 to 42) by MTT assay; type: functional, cell-based; conditions: dose 5-20 µM
SH-SY5Y [11] = experiment: Cytotoxicity against human SH-SY5Y cells assessed as reduction in cell viability at 75 uM incubated for 48 hrs by MTT assay; type: cell-based
SH-SY5Y [12] = experiment: Inhibition of H2O2-induced cell death in human SH-SY5Y cells at 20 uM incubated for 24 hrs by microscopic analysis; type: functional, cell-based
SH-SY5Y [13] = experiment: Cytotoxicity against human SH-SY5Y cells assessed as reduction in cell viability at 5 uM incubated for 48 hrs by MTT assay; type: cell-based
SH-SY5Y [14] = experiment: Cytotoxicity against human SH-SY5Y cells assessed as reduction in cell viability at 10 uM incubated for 48 hrs by MTT assay; type: cell-based
SH-SY5Y [15] = experiment: Neuroprotective activity against amyloid beta (1 to 42)-induced cell floating in human SH-SY5Y cells at 20 uM incubated for 24 hrs in presence of amyloid beta (1 to 42) by phase-contrast microscopic analysis; type: functional, cell-based
SH-SY5Y [16] = experiment: Inhibition of H2O2-induced ROS accumulation in human SH-SY5Y cells at 10 to 20 uM incubated for 24 hrs by […] probe based fluorescence assay; type: functional, cell-based; conditions: dose 10-20 µM
SH-SY5Y [17] = experiment: Cytotoxicity against human SH-SY5Y cells assessed as reduction in cell viability at 1 uM incubated for 48 hrs by MTT assay; type: cell-based
SH-SY5Y [18] = experiment: Inhibition of H2O2-induced morphological changes in human SH-SY5Y cells at 20 uM incubated for 24 hrs by microscopic analysis; type: functional, cell-based
SH-SY5Y [19] = experiment: Cytotoxicity against human SH-SY5Y cells assessed as reduction in cell viability at 100 uM incubated for 48 hrs by MTT assay; type: cell-based

Structure (SMILES): N#Cc1cccnc1N1CCN(c2nc(Nc3cccc(C(F)(F)F)c3)nc(Nc3ccc(F)c(Cl)c3)n2)CC1
- Activity (SH-SY5Y [1]): Active
- Activity (SH-SY5Y [2]): Active
- Activity (SH-SY5Y [3]): 92.8%
- Activity (SH-SY5Y [4]): Active
- Activity (SH-SY5Y [5]): 88.6%
- inhibition (Homo sapiens [6]): Active
- inhibition [7]: Active
- inhibition (Homo sapiens [8]): 83.7%
- Activity (SH-SY5Y [9]): Active
- IC50 (Acetylcholinesterase): 59 nM
- IC50 (Cholinesterase): 3600 nM
- Activity (SH-SY5Y [10]): Active
- Activity (SH-SY5Y [11]): 84.3%
- inhibition (SH-SY5Y [12]): Active
- Activity (SH-SY5Y [13]): 95.4%
- Activity (SH-SY5Y [14]): 95.7%
- Activity (SH-SY5Y [15]): Active
- inhibition (SH-SY5Y [16]): Active
- Activity (SH-SY5Y [17]): 97.1%
- inhibition (SH-SY5Y [18]): Active
- Activity (SH-SY5Y [19]): 80.3%

Structure (SMILES): N#Cc1cccnc1N1CCN(c2nc(Nc3ccc(F)cc3)nc(Nc3cccc(C(F)(F)F)c3)n2)CC1
- inhibition (Homo sapiens [8]): 80.4%
- IC50 (Acetylcholinesterase): 84 nM
- IC50 (Cholinesterase): 4890 nM

Structure (SMILES): Cc1ccc(Nc2nc(Nc3cccc(C(F)(F)F)c3)nc(N3CCN(c4ncccc4C#N)CC3)n2)cc1
- inhibition (Homo sapiens [8]): 70.5%
- IC50 (Acetylcholinesterase): 153 nM
- IC50 (Cholinesterase): 2210 nM

Structure (SMILES): Cc1ccc(Nc2nc(Nc3ccc(F)c(Cl)c3)nc(N3CCN(c4ncccc4C#N)CC3)n2)cc1
- inhibition (Homo sapiens [8]): 63.5%
- IC50 (Acetylcholinesterase): 1700 nM
- IC50 (Cholinesterase): 5360 nM

Structure (SMILES): COc1ccc(Nc2nc(Nc3ccccc3F)nc(N3CCN(c4ncccc4C#N)CC3)n2)cc1
- inhibition (Homo sapiens [8]): 68.5%
- IC50 (Acetylcholinesterase): 1410 nM
- IC50 (Cholinesterase): 4130 nM

Structure (SMILES): N#Cc1cccnc1N1CCN(c2nc(Nc3cccc(C(F)(F)F)c3)nc(NC3CC3)n2)CC1
- inhibition (Homo sapiens [8]): 60.7%
- IC50 (Acetylcholinesterase): 528 nM
- IC50 (Cholinesterase): 5250 nM

Structure (SMILES): COc1cc(/C=C/C(=O)CC(=O)/C=C/c2ccc(O)c(OC)c2)ccc1O
- inhibition (Homo sapiens [6]): Active
- inhibition (Homo sapiens [8]): 55.3%

Structure (SMILES): N#Cc1cccnc1N1CCN(c2nc(Nc3cccc(C(F)(F)F)c3)nc(Nc3ccc(F)cc3F)n2)CC1
- inhibition (Homo sapiens [8]): 81.2%
- IC50 (Acetylcholinesterase): 72 nM
- IC50 (Cholinesterase): 2850 nM

Structure (SMILES): COc1ccc(Nc2nc(Nc3cccc(C(F)(F)F)c3)nc(N3CCN(c4ncccc4C#N)CC3)n2)cc1
- Activity (SH-SY5Y [1]): Active
- Activity (SH-SY5Y [2]): Active
- Activity (SH-SY5Y [3]): 93.8%
- Activity (SH-SY5Y [4]): Active
- Activity (SH-SY5Y [5]): 89.6%
- inhibition (Homo sapiens [6]): Active
- inhibition (Homo sapiens [8]): 82.4%
- Activity (SH-SY5Y [9]): Active
- IC50 (Acetylcholinesterase): 80 nM
- IC50 (Cholinesterase): 2020 nM
- Activity (SH-SY5Y [10]): Dose-dependent effect
- Activity (SH-SY5Y [11]): 86.3%
- inhibition (SH-SY5Y [12]): Active
- Activity (SH-SY5Y [13]): 96.4%
- Activity (SH-SY5Y [14]): 94.7%
- Activity (SH-SY5Y [15]): Active
- inhibition (SH-SY5Y [16]): Active
- Activity (SH-SY5Y [17]): 98.1%
- inhibition (SH-SY5Y [18]): Active
- Activity (SH-SY5Y [19]): 83.3%
